The structures appear in SMILES notation.

We go through 20 compounds from patent publication US12291515B2, “Pyrrolidine derivative and use thereof” (Rushi Biotech (Hangzhou) Co., Ltd, priority 2021, dated 2025).

Holding throughout (format): cell-based
The test system of assay [1] is Human lung adenocarcinoma cell A549. The experiment in a line: CCK-8 cell proliferation assay, A549. The following applies: A549 cells, CCK-8, 24 hrs with drug, OD 450 nm. As for the experimental part: (§1) The effect of samples on the proliferation of human tumor cells in vitro was determined by CCK-8 cell proliferation assay.
(§2) The cells were assayed through a method including the following steps:
(§3) 1) The cells were digested, counted, and prepared into a cell suspension in a corresponding culture medium (Table 1) (5×10^4 cells/ml for CFPAC-1 and RPMI 8226, and 3.5×10^4 cells/ml for rest cells). The cell suspension was added to each well of a 96-well plate in 100 μl well.
(§4) 2) Then the 96-well plate was incubated for 24 hrs in an incubator at 37° C. and 5% CO2.
(§5) 3) The drug was diluted with the culture medium to the required working concentration. 100 μl of the corresponding drug containing medium was added to each well. A negative control group (added with drug-free culture medium) was also set.
(§6) 4) Then the 96-well plate was incubated for 24 hrs in an incubator at 37° C. and 5% CO2.
(§7) 5) The 96-well plate was stained with CCK-8, and The OD value was determined at λ=450 nm.
(§8) a) 10 μl of CCK-8 was added to each well, and incubated in the incubator for another 2-3 hrs.
(§9) b) The content was mixed uniformly by shaking gently on a shaker for 10 min, and the bubbles in the 96-well plate were removed.
(§10) 6) The inhibition rate in each group was calculated.
(In general: Tetrazolium dyes change colour on reduction, which living cells bring about.)

Assay [2] deals with Human hepatoma cell HepG2. The experiment in a line: CCK-8 cell proliferation assay, HepG2. The note with it: HepG2 cells, CCK-8, 24 hrs with drug, OD 450 nm. As for the experimental part: as §1, §2, §3, §4, §5, §6, §7, §8, §9, §10
For assay [3], the system named is Human esophageal cancer cell TE-1. The experiment in a line: CCK-8 cell proliferation assay, TE-1. The following applies: TE-1 cells, CCK-8, 24 hrs with drug, OD 450 nm. As for the experimental part: as §1, §2, §3, §4, §5, §6, §7, §8, §9, §10
For assay [4], the system named is Human gastric cancer cell MKN45. Kind of assay: CCK-8 cell proliferation assay, MKN-45. The note with it: MKN-45 cells, CCK-8, 24 hrs with drug, OD 450 nm. The procedure: as §1, §2, §3, §4, §5, §6, §7, §8, §9, §10
Assay [5] concerns Human colon cancer cell HCT-116. The experiment in a line: CCK-8 cell proliferation assay, HCT116. The note with it: HCT116 cells, CCK-8, 24 hrs with drug, OD 450 nm. As for the experimental part:
as §1, §2, §3, §4, §5, §6, §7, §8, §9, §10

The test system of assay [6] is Human multiple myeloma cell RPMI 8226. The experiment in a line: CCK-8 cell proliferation assay, RPMI8226. The note with it: RPMI8226 cells, CCK-8, 24 hrs with drug, OD 450 nm. The procedure: as §1, §2, §3, §4, §5, §6, §7, §8, §9, §10
Assay [7] deals with Human pancreatic cancer cell CFPAC-1. Kind of assay: CCK-8 cell proliferation assay, CFPAC-1. The following applies: CFPAC-1 cells, CCK-8, 24 hrs with drug, OD 450 nm. As for the experimental part:
as §1, §2, §3, §4, §5, §6, §7, §8, §9, §10

A word on the IC50: it is the concentration at which inhibition is half-maximal. Lower therefore signals higher potency. Turning to `O=C(NCCCCCC1CCN(C(=O)c2ccco2)C1)Nc1cccnc1` (centres unmarked) [BSS-TP028, 1-(5-(1-(furoyl)pyrrolidin-3-yl)pentyl)-2-(3-pyridinyl)urea], the half-maximal inhibitory concentration (IC50) stood at 41 nM in assay [1]; 59 nM in assay [2]; 57 nM in assay [3]; 44 nM in assay [4]; 63 nM in assay [5]; 42 nM in assay [6]. Besides, the IC50 in assay [7] is 31 nM.
In the case of `O=C(NCCCCCC1CCN(C(=O)c2occc2F)C1)Nc1ccncc1` (centres unmarked) [BSS-TP030], the IC50 in assay [1] was found to be 42 nM; in assay [2] it was 63 nM; in assay [3], 60 nM; in assay [4] it was 57 nM; in assay [5] it was 62 nM; in assay [6] it was 46 nM. The compound further returned an IC50 in assay [7] of 40 nM.
As for `O=C(NCCCCCC1CCN(C(=O)c2[nH]ccc2F)C1)Nc1ccncc1` (centres unmarked) [BSS-TP031], the concentration for half-maximal inhibition (IC50) in assay [1] was determined as 59 nM; in assay [2], 51 nM; in assay [3], 68 nM; in assay [4] it was 45 nM; in assay [5] it was 53 nM; in assay [6], 39 nM. The compound further came in with an IC50 in assay [7] of 33 nM.
With `COc1cccc(OC)c1C(=O)N1CCC(CCCCCNC(=O)Nc2cc(F)nc(F)c2)C1` (centres unmarked) [BSS-TP032], the IC50 in assay [1] came out at 73 nM; in assay [2] it was 99 nM; in assay [3], 117 nM; in assay [4] it was 74 nM; in assay [5], 69 nM; in assay [6], 58 nM. In addition, in assay [7], the IC50 stood at 39 nM.
For `COc1cccc(OC)c1C(=O)N1CCC(CCCCCNC(=O)Nc2cccnc2)C1` (centres unmarked) [BSS-TP033, 1-(5-(1-(2,6-dimethoxybenzoyl)pyrrolidin-3-yl)pentyl)-2-(3-pyridinyl) urea], the IC50 in assay [1] worked out at 64 nM; in assay [2], 82 nM; in assay [3], 87 nM; in assay [4] it was 65 nM; in assay [5], 72 nM; in assay [6], 53 nM. This compound also displayed an IC50 in assay [7] of 56 nM.
Take `O=C(NCCCCCC1CCN(C(=O)c2ccco2)C1)Nc1cc(F)nc(F)c1` (centres unmarked) [BSS-TP035]: the IC50 amounted to 39 nM in assay [1]; 81 nM in assay [2]; 73 nM in assay [3]; 47 nM in assay [4]; 66 nM in assay [5]; 29 nM in assay [6]. The compound also came in with an IC50 in assay [7] of 35 nM.
With `O=C(NCCCCCC1CCN(C(=O)c2cc3ccccc3o2)C1)Nc1cc(F)nc(F)c1` (centres unmarked) [BSS-TP036], the IC50 was 58 nM in assay [1]; 126 nM in assay [2]; 94 nM in assay [3]; 53 nM in assay [4]; 78 nM in assay [5]; 49 nM in assay [6]. For the same compound, in assay [7], it took 42 nM to reach half-maximal inhibition (IC50).
As to `O=C(NCCCCC[C@H]1CCN(C(=O)c2cccs2)C1)Nc1ccncc1` [BSS-TP039, (S)-1-(5-(1-(2-thienylformyl)pyrrolidin-3-yl)pentyl)-2-(4-pyridinyl)urea], the IC50 in assay [1] was 46 nM; in assay [2] it was 60 nM; in assay [3], 73 nM; in assay [4], 47 nM; in assay [5], 71 nM; in assay [6], 38 nM. Besides, the IC50 in assay [7] came out at 25 nM.
For `O=C(NCCCCC[C@@H]1CCN(C(=O)c2cccs2)C1)Nc1ccncc1` [BSS-TP040, (R)-1-(5-(1-(2-thienylformyl)pyrrolidin-3-yl)pentyl)-2-(4-pyridinyl)urea], the IC50 is 43 nM in assay [1]; 49 nM in assay [2]; 65 nM in assay [3]; 31 nM in assay [4]; 52 nM in assay [5]; 24 nM in assay [6]. The compound also registered an IC50 in assay [7] of 29 nM.
As for `O=C(NCCCCCCC1CCN(C(=O)c2ccccc2)C1)Nc1ccncc1` (centres unmarked) [BSS-TP101, 1-(6-(1-(benzoyl)pyrrolidin-3-yl)hexyl)-2-(4-pyridinyl)urea], the IC50 was found to be 35 nM in assay [1]; 50 nM in assay [2]; 64 nM in assay [3]; 39 nM in assay [4]; 22 nM in assay [5]; 21 nM in assay [6]. In addition, half-maximal inhibition in assay [7] (IC50) was put at 29 nM.
For `COc1cccc(OC)c1C(=O)N1CCC(CCCCCCNC(=O)Nc2ccncc2)C1` (centres unmarked) [BSS-TP102, 1-(6-(1-(2,6-dimethoxybenzoyl)pyrrolidin-3-yl)hexyl)-2-(4-pyridinyl) urea], the IC50 in assay [1] is 23 nM; in assay [2], 35 nM; in assay [3], 29 nM; in assay [4] it was 30 nM; in assay [5], 27 nM; in assay [6] it was 10 nM. In assay [7], this compound displayed an IC50 of 13 nM.
Regarding `O=C(NCCCCCCC1CCN(C(=O)c2cccs2)C1)Nc1ccncc1` (centres unmarked) [BSS-TP103, 1-(6-(1-(2-thienylformyl)pyrrolidin-3-yl)hexyl)-2-(4-pyridinyl)urea], the concentration for half-maximal inhibition (IC50) is 28 nM in assay [1]; 43 nM in assay [2]; 50 nM in assay [3]; 36 nM in assay [4]; 88 nM in assay [5]; 15 nM in assay [6]. The same compound had an IC50 in assay [7] of 31 nM.
For `O=C(NCCCCCCC1CCN(C(=O)c2ccc[nH]2)C1)Nc1ccncc1` (centres unmarked) [BSS-TP104, 1-(6-(1-(2-pyrrolylformyl)pyrrolidin-3-yl)hexyl)-2-(4-pyridinyl)urea], the IC50 came to 33 nM in assay [1]; 75 nM in assay [2]; 62 nM in assay [3]; 46 nM in assay [4]; 57 nM in assay [5]; 29 nM in assay [6]. In assay [7], the IC50 is 33 nM.
Regarding `O=C(NCCCCCCC1CCN(C(=O)c2ccco2)C1)Nc1ccncc1` (centres unmarked) [BSS-TP105, 1-(6-(1-(furoyl)pyrrolidin-3-yl)hexyl)-2-(4-pyridinyl)urea], the IC50 is 43 nM in assay [1]; 61 nM in assay [2]; 76 nM in assay [3]; 32 nM in assay [4]; 53 nM in assay [5]; 20 nM in assay [6]. Besides, the IC50 in assay [7] was determined as 37 nM.
Regarding `O=C(NCCCCCCC1CCN(C(=O)C2CCCN2)C1)Nc1ccncc1` (centres unmarked) [BSS-TP106, 1-(6-(1-(2-pyrrolidinylformyl)pyrrolidin-3-yl)hexyl)-2-(4-pyridinyl)urea], the IC50 in assay [1] is 68 nM; in assay [2] it was 119 nM; in assay [3] it was 97 nM; in assay [4] it was 58 nM; in assay [5], 66 nM; in assay [6], 47 nM. The compound also returned an IC50 in assay [7] of 46 nM.
`O=C(NCCCCCCC1CCN(C(=O)C2CCCO2)C1)Nc1ccncc1` (centres unmarked) [BSS-TP107, 1-(6-(1-(2-tetrahydrofurylformyl)pyrrolidin-3-yl)hexyl)-2-(4-pyridinyl)urea]: the 50% inhibitory concentration (IC50) in assay [1] came to 55 nM; in assay [2], 137 nM; in assay [3], 82 nM; in assay [4], 53 nM; in assay [5] it was 76 nM; in assay [6] it was 51 nM. For the same compound, in assay [7], the half-maximal inhibitory concentration (IC50) came out at 58 nM.
As for `O=C(NCCCCCCC1CCN(C(=O)C2CCCS2)C1)Nc1ccncc1` (centres unmarked) [BSS-TP108, 1-(6-(1-(2-tetrahydrothienylformyl)pyrrolidin-3-yl)hexyl)-2-(4-pyridinyl)urea], the IC50 in assay [1] worked out at 49 nM; in assay [2], 92 nM; in assay [3], 73 nM; in assay [4], 49 nM; in assay [5], 59 nM; in assay [6] it was 32 nM. Half-maximal inhibition in assay [7] (IC50) was put at 41 nM.
`O=C(NCCCCCCC1CCN(C(=O)c2ccccc2)C1)Nc1cccnc1` (centres unmarked) [BSS-TP109, 1-(6-(1-(benzoyl)pyrrolidin-3-yl)hexyl)-2-(3-pyridinyl)urea]: the IC50 in assay [1] worked out at 29 nM; in assay [2], 71 nM; in assay [3], 88 nM; in assay [4], 53 nM; in assay [5], 47 nM; in assay [6], 23 nM. In assay [7], the IC50 worked out at 26 nM.
With `O=C(NCCCCCCC1CCN(C(=O)c2cccs2)C1)Nc1cccnc1` (centres unmarked) [BSS-TP110, 1-(6-(1-(2-thienylformyl)pyrrolidin-3-yl)hexyl)-2-(3-pyridinyl)urea], the IC50 in assay [1] amounted to 44 nM; in assay [2] it was 116 nM; in assay [3], 109 nM; in assay [4], 75 nM; in assay [5], 73 nM; in assay [6], 56 nM. The compound also registered an IC50 in assay [7] of 52 nM.
As for `O=C(NCCCCCCC1CCN(C(=O)c2ccco2)C1)Nc1cccnc1` (centres unmarked) [BSS-TP111, 1-(6-(1-(furoyl)pyrrolidin-3-yl)hexyl)-2-(3-pyridinyl)urea], the IC50 in assay [1] came to 61 nM; in assay [2], 87 nM; in assay [3] it was 133 nM; in assay [4], 77 nM; in assay [5], 62 nM; in assay [6], 53 nM. Half-maximal inhibition in assay [7] (IC50) required 42 nM.
